Assays:
Assay type in all cases: functional, cell-based
[1] = biological target: T1, ATP-dependent translocase ABCB1 (Mus musculus, UniProt P21447); assay: TP_TRANSPORTER: transepithelial transport (basal to apical) in Mdr1a-expressing LLC-PK1 cells; conditions: pig
[2] = biological target: T2, ATP-dependent translocase ABCB1 (Homo sapiens, UniProt P08183); assay: TP_TRANSPORTER: transepithelial transport (basal to apical) in MDR1-expressing LLC-PK1 cells; conditions: pig
[3] = biological target: T3, ATP-dependent translocase ABCB1 (Mus musculus, UniProt P06795); assay: TP_TRANSPORTER: transepithelial transport (basal to apical) in Mdr1b-expressing LLC-PK1 cells; conditions: pig
[4] = biological target: T3, ATP-dependent translocase ABCB1; assay: TP_TRANSPORTER: inhibition of TBuMA transepithelial transport (basal to apical)(TBuMA: 10 uM, Vinblastine: 2 uM) in Mdr1b-expressing LLC-PK1 cells; conditions: pig, llc-pk1, 2 µM
[5] = biological target: T2, ATP-dependent translocase ABCB1; assay: TP_TRANSPORTER: inhibition of TBuMA transepithelial transport (basal to apical)(TBuMA: 10 uM, Vinblastine: 2 uM) in MDR1-expressing LLC-PK1 cells; conditions: pig, llc-pk1, 2 µM
[6] = biological target: T1, ATP-dependent translocase ABCB1; assay: TP_TRANSPORTER: inhibition of TBuMA transepithelial transport (basal to apical)(TBuMA: 10 uM, Vinblastine: 2 uM) in Mdr1a-expressing LLC-PK1 cells; conditions: pig, llc-pk1, 2 µM

T1 sequence (P21447 whole entry): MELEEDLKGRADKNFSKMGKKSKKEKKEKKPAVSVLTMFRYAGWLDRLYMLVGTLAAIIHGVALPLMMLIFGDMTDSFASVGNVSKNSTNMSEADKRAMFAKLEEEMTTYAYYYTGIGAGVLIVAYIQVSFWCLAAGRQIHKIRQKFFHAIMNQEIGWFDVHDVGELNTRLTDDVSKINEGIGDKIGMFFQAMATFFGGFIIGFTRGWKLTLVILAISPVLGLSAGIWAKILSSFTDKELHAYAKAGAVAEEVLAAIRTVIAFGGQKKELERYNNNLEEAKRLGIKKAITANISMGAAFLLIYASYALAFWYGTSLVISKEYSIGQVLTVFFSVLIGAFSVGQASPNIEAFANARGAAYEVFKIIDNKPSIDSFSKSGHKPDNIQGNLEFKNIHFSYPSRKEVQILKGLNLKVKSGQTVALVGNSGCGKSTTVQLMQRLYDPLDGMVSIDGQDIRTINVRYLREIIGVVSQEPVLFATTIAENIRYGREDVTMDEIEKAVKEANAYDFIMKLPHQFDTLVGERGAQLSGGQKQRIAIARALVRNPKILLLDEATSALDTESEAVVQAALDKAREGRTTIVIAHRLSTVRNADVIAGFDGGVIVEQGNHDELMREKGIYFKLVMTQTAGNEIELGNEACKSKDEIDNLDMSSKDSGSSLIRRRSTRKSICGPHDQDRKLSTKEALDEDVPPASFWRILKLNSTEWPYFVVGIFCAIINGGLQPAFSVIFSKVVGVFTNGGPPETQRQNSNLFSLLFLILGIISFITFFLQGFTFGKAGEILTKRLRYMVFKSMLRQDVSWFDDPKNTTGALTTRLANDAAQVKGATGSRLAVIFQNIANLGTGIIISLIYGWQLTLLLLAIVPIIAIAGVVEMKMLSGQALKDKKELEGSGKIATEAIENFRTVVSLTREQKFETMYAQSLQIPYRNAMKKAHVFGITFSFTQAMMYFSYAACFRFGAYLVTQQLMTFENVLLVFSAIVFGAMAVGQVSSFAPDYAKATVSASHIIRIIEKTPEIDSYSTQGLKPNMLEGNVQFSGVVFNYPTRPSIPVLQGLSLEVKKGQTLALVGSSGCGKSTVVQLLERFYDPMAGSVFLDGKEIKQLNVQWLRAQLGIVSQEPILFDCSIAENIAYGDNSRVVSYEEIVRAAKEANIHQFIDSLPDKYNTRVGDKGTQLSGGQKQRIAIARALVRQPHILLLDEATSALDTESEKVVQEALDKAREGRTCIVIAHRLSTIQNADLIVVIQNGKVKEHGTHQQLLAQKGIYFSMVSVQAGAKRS
T2 sequence (P08183 whole entry): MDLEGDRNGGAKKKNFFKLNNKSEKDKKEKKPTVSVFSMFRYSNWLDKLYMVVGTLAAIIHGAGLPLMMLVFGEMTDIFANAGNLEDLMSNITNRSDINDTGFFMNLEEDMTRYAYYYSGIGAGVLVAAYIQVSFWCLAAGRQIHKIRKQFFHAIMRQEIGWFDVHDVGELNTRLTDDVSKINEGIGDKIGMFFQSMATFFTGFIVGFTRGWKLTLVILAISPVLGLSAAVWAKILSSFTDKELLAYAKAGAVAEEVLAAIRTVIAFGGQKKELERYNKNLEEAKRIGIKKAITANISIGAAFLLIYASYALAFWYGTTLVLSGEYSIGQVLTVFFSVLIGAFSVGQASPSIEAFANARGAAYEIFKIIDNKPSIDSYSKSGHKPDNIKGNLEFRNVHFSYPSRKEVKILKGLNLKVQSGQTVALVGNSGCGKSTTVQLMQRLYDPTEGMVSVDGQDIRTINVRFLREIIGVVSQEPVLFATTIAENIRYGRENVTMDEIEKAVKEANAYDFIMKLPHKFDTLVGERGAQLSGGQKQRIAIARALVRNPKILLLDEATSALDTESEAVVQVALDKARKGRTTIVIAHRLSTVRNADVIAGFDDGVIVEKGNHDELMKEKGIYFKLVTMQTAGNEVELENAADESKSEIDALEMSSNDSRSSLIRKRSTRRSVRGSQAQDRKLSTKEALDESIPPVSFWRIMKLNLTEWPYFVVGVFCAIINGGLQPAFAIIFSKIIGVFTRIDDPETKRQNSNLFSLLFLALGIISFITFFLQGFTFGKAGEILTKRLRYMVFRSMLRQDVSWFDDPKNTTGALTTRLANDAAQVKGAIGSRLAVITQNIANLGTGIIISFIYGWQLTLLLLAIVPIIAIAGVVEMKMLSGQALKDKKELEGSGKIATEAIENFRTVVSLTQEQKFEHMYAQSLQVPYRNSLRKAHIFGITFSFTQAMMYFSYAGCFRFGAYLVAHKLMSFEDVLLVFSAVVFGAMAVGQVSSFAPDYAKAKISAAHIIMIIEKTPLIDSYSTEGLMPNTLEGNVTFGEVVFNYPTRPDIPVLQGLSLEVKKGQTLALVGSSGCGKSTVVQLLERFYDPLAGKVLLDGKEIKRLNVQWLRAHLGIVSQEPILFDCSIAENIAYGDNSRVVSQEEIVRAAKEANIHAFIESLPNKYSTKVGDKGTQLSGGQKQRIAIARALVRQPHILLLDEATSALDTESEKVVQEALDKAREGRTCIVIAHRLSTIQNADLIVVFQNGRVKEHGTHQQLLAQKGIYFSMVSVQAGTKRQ
T3 sequence (P06795 whole entry): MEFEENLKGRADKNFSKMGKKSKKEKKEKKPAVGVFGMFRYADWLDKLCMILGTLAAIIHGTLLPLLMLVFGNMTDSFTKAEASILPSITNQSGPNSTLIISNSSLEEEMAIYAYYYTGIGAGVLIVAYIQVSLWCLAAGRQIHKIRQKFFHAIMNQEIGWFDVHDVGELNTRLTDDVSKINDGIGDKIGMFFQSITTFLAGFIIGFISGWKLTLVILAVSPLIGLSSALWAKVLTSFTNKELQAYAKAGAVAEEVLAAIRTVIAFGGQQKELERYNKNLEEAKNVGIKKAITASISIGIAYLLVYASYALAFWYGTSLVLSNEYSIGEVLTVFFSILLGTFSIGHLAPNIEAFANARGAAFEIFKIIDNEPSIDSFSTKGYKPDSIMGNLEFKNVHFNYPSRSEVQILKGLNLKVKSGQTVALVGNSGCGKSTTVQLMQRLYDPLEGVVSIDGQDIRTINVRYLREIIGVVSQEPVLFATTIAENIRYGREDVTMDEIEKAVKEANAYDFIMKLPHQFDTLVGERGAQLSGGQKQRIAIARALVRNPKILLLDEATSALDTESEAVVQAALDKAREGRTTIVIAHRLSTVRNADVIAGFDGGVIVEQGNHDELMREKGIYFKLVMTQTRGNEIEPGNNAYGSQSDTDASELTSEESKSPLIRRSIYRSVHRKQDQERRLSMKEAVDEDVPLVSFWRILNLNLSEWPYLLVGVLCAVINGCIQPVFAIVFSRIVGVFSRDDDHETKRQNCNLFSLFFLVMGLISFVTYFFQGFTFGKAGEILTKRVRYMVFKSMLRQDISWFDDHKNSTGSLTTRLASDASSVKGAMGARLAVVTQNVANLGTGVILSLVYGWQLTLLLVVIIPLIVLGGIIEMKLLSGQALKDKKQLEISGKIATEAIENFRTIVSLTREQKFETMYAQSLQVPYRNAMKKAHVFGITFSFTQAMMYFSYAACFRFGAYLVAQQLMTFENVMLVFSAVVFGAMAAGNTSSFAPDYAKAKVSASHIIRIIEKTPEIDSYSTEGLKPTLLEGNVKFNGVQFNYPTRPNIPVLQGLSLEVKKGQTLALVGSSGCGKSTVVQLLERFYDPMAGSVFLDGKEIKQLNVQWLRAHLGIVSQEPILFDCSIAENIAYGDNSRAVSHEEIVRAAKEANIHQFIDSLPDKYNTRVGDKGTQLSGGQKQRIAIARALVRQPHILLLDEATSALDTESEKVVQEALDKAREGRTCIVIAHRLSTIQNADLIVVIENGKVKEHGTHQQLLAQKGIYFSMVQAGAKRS

Activity [1]	Activity [2]	Activity [3]	Activity [4]	Activity [5]	Activity [6]	Compound
substrate [+]	substrate [+]					CC[N+](C)(CC)CCNC(=O)c1ccc(N=[N+]=[N-])cc1.[I-] [AZIDOPROCAINAMIDE METHOIODIDE]
substrate [+]	substrate [+]	substrate [+]				CCCC[N+](C)(CCCC)CCCC [TRIBUTYLMETHYLAMMONIUM]
substrate [+]	substrate [+]	substrate [+]				CC(=O)O[C@H]1C[C@@H]2CC[C@@H]3[C@H](CC[C@@]4(C)[C@H]3C[C@H]([N+]3(C)CCCCC3)[C@@H]4OC(C)=O)[C@@]2(C)C[C@@H]1N1CCCCC1 [VECURONIUM]
substrate [+]		substrate [+]	inhibitor [+]	inhibitor [+]	inhibitor [+]	CC[C@]1(O)C[C@@H]2CN(CCc3c([nH]c4ccccc34)[C@@](C(=O)OC)(c3cc4c(cc3OC)N(C)[C@H]3[C@@](O)(C(=O)OC)[C@H](OC(C)=O)[C@]5(CC)C=CCN6CC[C@]43[C@@H]65)C2)C1 [VINBLASTINE]

Source: ChEMBL document CHEMBL2073880, “Heterologous expression of various P-glycoproteins in polarized epithelial cells induces directional transport of small (type 1) and bulky (type 2) cationic drugs” (J Pharmacol Exp Ther, 1998)
